Read-outs that look alike come from different tables or passages of the source.
Key:
AKR1C3 = conditions: reported in literature; cited from earlier work
H460 cell line [1] = test: In vitro cell proliferation inhibition with the drug combination (CTG method); format: cell-based, human; conditions: combined with AST-3424
Description: • a) H460 cells (human non-small lung cancer cells, AKR1C3 enzyme highly expressed) were cultured in RPMI-1640 medium, added with 10% FBS and 1% double antibody, and placed at 37° C. and 5% CO2 for culturing.
• a) The cells were routinely cultured until the cell saturation was 80%-90%, and when the required quantity was reached, the cells were collected. • b) The cells were resuspended with the corresponding medium and cell counts were performed to prepare a cell suspension with appropriate density. • c) The cell suspension was added to a 96-well plate with 100 μL per well, and the cell density was 2,000 cells per well. • d) The cells were incubated overnight in an incubator at 37° C. with 5% CO2. 1.1.3 Treating Cells with Compound (72 Hours)
AST-3424 alone: after 24 hours of cell seeding, AST-3424 was administered alone. Specifically, each well was supplemented with 99 μL of growth medium, and then added with 1 μL of the prepared AST-3424 solution to form different concentrations of AST-3424. The plate was shaken gently to ensure uniform mixing, and placed in an incubator at 37° C. with 5% CO2.
The cell plates were placed in the incubator for 72 hours.
1.1.4 Treating Cells with Compound (2 Hours) • a) Administrating single drug: after 24 hours of cell seeding, AST-3424 was administered alone. Specifically, each well was supplemented with 99 μL of growth medium, and then added with 1 μL of the prepared AST-3424 solution to form different concentrations of AST-3424. The plate was shaken gently to ensure uniform mixing, and placed in the incubator for 2 hours. […] The plate was shaken gently to ensure uniform mixing. After the plate was placed in the incubator for 2 hours, 1 μL of the prepared AST-3424 solution was added to form different concentrations of AST-3424. The plate was shaken gently to ensure uniform mixing, and placed in the incubator at 37° C. with 5% CO2 for another 2 hours. Then, the supernatant was discarded, and the remainder was washed twice with growth medium and added with 200 μL of fresh medium.
1.1.6 Detecting with CTG Method • a) The cell plate to be tested was placed at room temperature to equilibrium for 30 minutes, and 100 μL of culture medium was discarded from each well. • b) 25 μL CTG reagent (CelltiterGlo kit) was added to each well. The plate was placed on a fast shaker to shake for 2 minutes, and then placed at room temperature away from light for 30 minutes. • c) The chemiluminescent signal value was read with multifunctional microplate reader at reading time of 1000 ms.
IC50 was calculated with GraphPad Prism 5 software, and the IC50 (half maximal inhibitory concentration) of the compound was obtained using the following nonlinear fitting formula: […]

H460 cell line [2] = test: Cell proliferation inhibition by combining Naproxen or TH-3021 and AST-3424 in different sequence of administration (CTG); format: cell-based, human; conditions: for effect of subsequent addition on the efficacy of AST-3424: Group 3: added after 2 h AST-3424 pretreatment and washing
Description: The following are the different treatment methods. […] The plate was shaken gently to ensure uniform mixing, and placed in the incubator for 2 hours. […] The plate was shaken gently to ensure uniform mixing, and placed in the incubator for 2 hours. Subsequently, the plate was washed to remove the compound, and placed in the incubator at 37° C. with 5% CO2 for further 72 hours. […] The plate was shaken gently to ensure uniform mixing, and placed in the incubator for 2 hours. Subsequently, the plate was washed to remove the compounds, and placed in the incubator at 37° C. with 5% CO2 for 72 hours. […] The plate was shaken gently to ensure uniform mixing, and placed in the incubator for 2 hours. […] The plate was shaken gently to ensure uniform mixing, and placed in the incubator for 2 hours. Subsequently, the plate was washed to remove the compounds, and placed in the incubator at 37° C. with 5% CO2 for further 72 hours. […] The plate was shaken gently to ensure uniform mixing, and placed in the incubator for 2 hours. […] The plate was shaken gently to ensure uniform mixing, and placed in the incubator for 2 hours. Subsequently, the plate was washed to remove the compounds, and placed in the incubator at 37° C. with 5% CO2 for further 72 hours. b) Administrating single drug: after 24 hours of cell seeding, the compound was administered alone. […] The plate was shaken gently to ensure uniform mixing, and placed in the incubator at 37° C. with 5% CO2 for 2 hours. Subsequently, the compound was washed off, and each well was added with fresh medium. The plate was placed in the incubator at 37° C. with 5% CO2 for further 72 hours.

[3] = cited from earlier work; for AUC0-t / Cmax / T1/2 / Tmax: patients, mean
[4] = OBI-3424 dose level 1 mg/m^2, infusion
[5] = OBI-3424 dose level 2 mg/m^2, infusion
[6] = OBI-3424 dose level 4 mg/m^2, infusion
[7] = OBI-3424 dose level 6 mg/m^2, infusion
[8] = OBI-3424 dose level 8 mg/m^2, infusion
[9] = OBI-3424 dose level 10 mg/m^2, infusion
[10] = OBI-3424 dose level 12 mg/m^2, infusion
[11] = OBI-3424 dose level 14 mg/m^2, infusion

For `CC(=O)Oc1ccccc1C(=O)O` [Aspirin], the AKR1C3 inhibitory activity (AKR1C3) is given as “have AKR1C3 inhibitory activity”.

For `O=C(O)Cc1ccccc1Nc1c(Cl)cccc1Cl` [Diclofenac], the AKR1C3 inhibitory activity (AKR1C3) is listed as “have AKR1C3 inhibitory activity”.

In the case of `CC(C(=O)O)c1cccc(Oc2ccccc2)c1` (stereo not shown) [Fenoprofen], the AKR1C3 inhibitory activity (AKR1C3) is listed as “have AKR1C3 inhibitory activity”.

In the case of `CC(C(=O)O)c1ccc(-c2ccccc2)c(F)c1` (stereo not shown) [Flurbiprofen], the AKR1C3 inhibitory activity (AKR1C3) is listed as “have AKR1C3 inhibitory activity”.

In the case of `COc1ccc2c(c1)c(CC(=O)O)c(C)n2C(=O)c1ccc(Cl)cc1` [Indomethacin], the AKR1C3 inhibitory activity (AKR1C3) is given as “has AKR1C3 inhibitory activity”.

In the case of `Cc1ccc(Cl)c(Nc2ccccc2C(=O)O)c1Cl` [Meclofenamic Acid], the AKR1C3 inhibitory activity (AKR1C3) is listed as “have AKR1C3 inhibitory activity”.

In the case of `Cc1cccc(Nc2ccccc2C(=O)O)c1C` [Mefenamic acid], the AKR1C3 inhibitory activity (AKR1C3) is given as “have AKR1C3 inhibitory activity”.

In the case of `COc1ccc2cc([C@H](C)C(=O)O)ccc2c1` [Naproxen, reference compound], the AKR1C3 inhibitory activity (AKR1C3) is listed as “have AKR1C3 inhibitory activity”, the “effect of the combination on the cell proliferation inhibitory activity of AST-3424” value (H460 cell line [1]) is listed as “significantly affect” and the “effect of subsequent addition on the efficacy of AST-3424” value (H460 cell line [2]) is listed as “no longer affected the efficacy of AST-3424”.

In the case of `O=P(O)(N1CC1)N1CC1` [OBI-2660], the “AUC0-t” value [3, 4] is listed as 7.30 ng·h/mL, the “Cmax” value [3, 4] is listed as 1.70 ng/mL and the “T1/2” value [3, 4] is listed as 3.08 h. For the same compound, the “Tmax” value [3, 4] was 1.75 h, the “AUC0-t” value [3, 5] was 10.00 ng·h/mL and the “Cmax” value [3, 5] was 2.30 ng/mL. The “T1/2” value [3, 5] was 2.48 h, the “Tmax” value [3, 5] was 1.67 h and the “AUC0-t” value [3, 6] was 19.30 ng·h/mL. For the same compound, the “Cmax” value [3, 6] was 5.00 ng/mL, the “T1/2” value [3, 6] was 2.00 h and the “Tmax” value [3, 6] was 1.33 h. The “AUC0-t” value [3, 7] was 27.40 ng·h/mL, the “Cmax” value [3, 7] was 6.80 ng/mL and the “T1/2” value [3, 7] was 2.09 h. The “Tmax” value [3, 7] was 1.75 h, the “AUC0-t” value [3, 8] was 32.80 ng·h/mL and the “Cmax” value [3, 8] was 8.50 ng/mL. For the same compound, the “T1/2” value [3, 8] was 1.87 h, the “Tmax” value [3, 8] was 1.44 h and the “AUC0-t” value [3, 9] was 29.20 ng·h/mL. The “Cmax” value [3, 9] was 10.10 ng/mL, the “T1/2” value [3, 9] was 2.99 h and the “Tmax” value [3, 9] was 1.67 h. The “AUC0-t” value [3, 10] was 56.60 ng·h/mL, the “Cmax” value [3, 10] was 13.10 ng/mL and the “T1/2” value [3, 10] was 2.41 h. For the same compound, the “Tmax” value [3, 10] was 1.53 h, the “AUC0-t” value [3, 11] was 45.60 ng·h/mL and the “Cmax” value [3, 11] was 11.20 ng/mL. The “T1/2” value [3, 11] was 2.46 h, the “Tmax” value [3, 11] was 1.75 h and the “accumulation of exposure (Cmax and AUC)” value ([3]; between the two doses (Cycle 1 Day1 and Cycle 1 Day8)) was “no accumulation of exposure”.

For `CC(=O)Nc1ccc(O)cc1` [Paracetamol], the AKR1C3 inhibitory activity (AKR1C3) is given as “have AKR1C3 inhibitory activity”.

For `O=C([O-])c1ccccc1O.[Na+]` [Sodium salicylate], the AKR1C3 inhibitory activity (AKR1C3) is listed as “have AKR1C3 inhibitory activity”.

For `CC1=C(CC(=O)O)c2cc(F)ccc2/C1=C\c1ccc([S+](C)[O-])cc1` (stereo not shown) [Sulindac], the AKR1C3 inhibitory activity (AKR1C3) is listed as “have AKR1C3 inhibitory activity”.

In the case of `O=C(N1CCOCC1)N1CCN(c2ccc(Cl)cc2Cl)CC1` [TH-3021, reference compound], the AKR1C3 inhibitory activity (AKR1C3) is given as “specific inhibitor of AKR1C3”, the “effect of subsequent addition on the efficacy of AST-3424” value (H460 cell line [2]) is given as “no longer affected the efficacy of AST-3424” and the “difference in IC50 values of AST-3424 (fold)” value (H460 cell line [2]; group 1 (TH-3021 pretreatment, washed off)) is given as 6 fold. The “difference in IC50 values of AST-3424 (fold)” value (H460 cell line [2]; groups 2 and 4 (TH-3021 present together with AST-3424)) was 200 fold.

In the case of `Cc1ccc(C(=O)c2ccc(CC(=O)O)n2C)cc1` [Tolmetin], the AKR1C3 inhibitory activity (AKR1C3) is listed as “have AKR1C3 inhibitory activity”.

For `Cc1cc(CC(=O)O)n(C)c1C(=O)c1ccc(Cl)cc1` [Zomepirac], the AKR1C3 inhibitory activity (AKR1C3) is given as “have AKR1C3 inhibitory activity”.
